# Experimental data taken from US8288371B2, “Ortho pyrrolidine, benzyl-substituted heterocycle CCR1 antagonists for autoimmune diseases and inflammation” (Pharmacopeia, LLC, priority 2007, dated 2012).
# pIC50: −log10 of the molar value.
# Target: T1, human CCR1 (Homo sapiens, UniProt P32246)
# T1 sequence (P32246 1-355): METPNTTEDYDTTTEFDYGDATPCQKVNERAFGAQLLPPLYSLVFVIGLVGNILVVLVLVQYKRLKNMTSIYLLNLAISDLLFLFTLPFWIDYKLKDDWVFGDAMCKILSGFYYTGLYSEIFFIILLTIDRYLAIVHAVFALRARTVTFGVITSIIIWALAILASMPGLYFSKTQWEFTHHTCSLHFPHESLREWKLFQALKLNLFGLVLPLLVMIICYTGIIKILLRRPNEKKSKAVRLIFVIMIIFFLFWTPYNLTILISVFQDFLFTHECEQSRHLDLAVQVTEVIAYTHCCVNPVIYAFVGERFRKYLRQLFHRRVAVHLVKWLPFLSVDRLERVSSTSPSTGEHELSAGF
# Assay: CCR1 binding protocol (SPA, [125I]-MIP-1α displacement)
# Conditions: cell membrane expressing human CCR1, 0.1 nM [125I]-MIP-1α, 4 hours at ambient temperature; read-out: Relative potency (IC50)
# Experimental: The following protocol was used to test compounds for CCR1 binding. A mixture, including scintillation proximity assay (SPA) beads and cell membrane expressing human CCR1, was prepared in assay buffer (130 mM NaCl+5 mM KCl+1 mM MnCl+50 mM Tris HCl at pH 7.4+0.1% bovine serum albumin (BSA)) at the ratio of 50 μg/ml membrane to 10 mg/ml SPA beads. 10 μl of the mixture was transferred to each well of a 384-well assay plate yielding a final concentration for the membrane and SPA beads of 0.5 μg/well and 100 μg/well, respectively
# To generate different concentrations of the test compound, compound stocks were prepared using 10 step ½ log dilutions with a high concentration of 10 mM in DMSO and the lowest concentration being DMSO only without compound. An intermediate 40× dilution was then prepared in the assay buffer. The compound was then transferred at 10 μl/well to the assay plate. 0.5 nM [^125 I]-labeled macrophage inflammatory protein-1α (MIP-1α, an endogenous CCR1 ligand) in the assay buffer was transferred to the assay plate at 5 μl/well, for a final ligand concentration of 0.1 nM. The assay plate was then centrifuged at 2500 rpm for 2 minutes and incubated for 4 hours at ambient temperature, at which time the raw data was recorded using microbeta. The IC50 was then calculated using Graphpad Prism.
row,SMILES,pIC50
1,Cc1noc([C@H]2CCCN2C(=O)Nc2c(C)noc2C)c1Cc1ccc(Cl)cc1 [Compound 1],> 7.30
2,Cc1noc(-c2ccccc2)c1NC(=O)N1CCC[C@@H]1c1oncc1Cc1ccc(Cl)cc1 [Compound 2],6.30 to 7.30
3,CN1C(=O)COc2ccc(NC(=O)N3CCC[C@@H]3c3oncc3Cc3ccc(Cl)cc3)cc21 [Compound 3],6.30 to 7.30
4,O=C(N[C@H]1CCOc2cc(C(F)(F)F)ccc21)N1CCC[C@@H]1c1oncc1Cc1ccc(Cl)cc1 [Compound 4],6.30 to 7.30
5,O=C(Nc1ccc(C(F)(F)F)cc1)N1CCC[C@@H]1c1oncc1Cc1ccc(Cl)cc1 [Compound 5],6.30 to 7.30
6,Cc1noc([C@H]2CCCN2C(=O)Nc2ccc(C(F)(F)F)cc2)c1Cc1ccc(Cl)cc1 [Compound 6],5.30 to 6.30
7,Cc1noc(C)c1NC(=O)N1CCC[C@@H]1c1noc(C)c1Cc1ccc(Cl)cc1 [Compound 7],6.30 to 7.30
8,Cn1cc(Cc2ccc(Cl)cc2)c([C@H]2CCCN2C(=O)Nc2ccc(C(F)(F)F)cc2)n1 [Compound 8],6.30 to 7.30
9,Cc1noc(-c2ccccc2)c1NC(=O)N1CCC[C@@H]1c1nn(C)c(C)c1Cc1ccc(Cl)cc1 [Compound 9],5.30 to 6.30
10,O=C(Nc1ccc(C(F)(F)F)cc1)N1CCC[C@@H]1c1[nH]ncc1Cc1ccc(Cl)cc1 [Compound 10],5.30 to 6.30
11,Cn1ncc(Cc2ccc(Cl)cc2)c1[C@H]1CCCN1C(=O)Nc1ccc(C(F)(F)F)cc1 [Compound 11],5.30 to 6.30
12,Cc1cc(C(F)(F)F)cc(C)c1NC(=O)N1CCC[C@@H]1c1ncncc1Cc1ccc(Cl)cc1 [Compound 12],> 7.30
13,Cc1cc(Cl)cc(C)c1NC(=O)N1CCC[C@@H]1c1ncncc1Cc1ccc(Cl)cc1 [Compound 13],> 7.30
14,Cc1noc(-c2ccccc2)c1NC(=O)N1CCC[C@@H]1c1ncncc1Cc1ccc(Cl)cc1 [Compound 14],> 7.30
15,Cc1onc(-c2ccccc2)c1NC(=O)N1CCC[C@@H]1c1ncncc1Cc1ccc(Cl)cc1 [Compound 15],> 7.30
16,Cc1ncc(Cc2ccc(Cl)cc2)c([C@H]2CCCN2C(=O)Nc2c(C)cc(C(F)(F)F)cc2C)n1 [Compound 16],6.30 to 7.30
17,CN1C(=O)COc2ccc(NC(=O)N3CCC[C@@H]3c3ncncc3Cc3ccc(Cl)cc3)cc21 [Compound 17],6.30 to 7.30
18,Cc1ncc(Cc2ccc(Cl)cc2)c([C@H]2CCCN2C(=O)Nc2c(C)cc(Cl)cc2C)n1 [Compound 18],6.30 to 7.30
19,Cc1ncnc([C@H]2CCCN2C(=O)Nc2c(C)noc2C)c1Cc1ccc(Cl)cc1 [Compound 19],6.30 to 7.30
20,C[C@H](NC(=O)N1CCC[C@@H]1c1ncncc1Cc1ccc(Cl)cc1)c1ccc(C(F)(F)F)cc1 [Compound 20],6.30 to 7.30
21,Cc1ncc(Cc2ccc(Cl)cc2)c([C@H]2CCCN2C(=O)Nc2c(C)noc2-c2ccccc2)n1 [Compound 21],6.30 to 7.30
22,O=C(N[C@H]1CCOc2c(F)cccc21)N1CCC[C@@H]1c1ncncc1Cc1ccc(Cl)cc1 [Compound 22],6.30 to 7.30

row,SMILES,pIC50
1,O=C(Nc1ccc(C(F)(F)F)cc1)N1CCC[C@@H]1c1ncncc1Cc1ccc(Cl)cc1 [Compound 23],6.30 to 7.30
2,O=C(N[C@H]1CCOc2cc(C(F)(F)F)ccc21)N1CCC[C@@H]1c1ncncc1Cc1ccc(Cl)cc1 [Compound 24],6.30 to 7.30
3,O=C(NCc1ccc(C(F)(F)F)cc1)N1CCC[C@@H]1c1ncncc1Cc1ccc(Cl)cc1 [Compound 25],6.30 to 7.30
4,Cc1ncnc([C@H]2CCCN2C(=O)NC2(c3ccccc3)CC2)c1Cc1ccc(Cl)cc1 [Compound 26],6.30 to 7.30
5,Cc1ncc(Cc2ccc(Cl)cc2)c([C@H]2CCCN2C(=O)Nc2ccc3c(c2)N(C)C(=O)CO3)n1 [Compound 27],5.30 to 6.30
6,CC(C)(NC(=O)N1CCC[C@@H]1c1ncncc1Cc1ccc(Cl)cc1)c1ccccc1 [Compound 28],5.30 to 6.30
7,O=C(N[C@H]1CCCc2ccccc21)N1CCC[C@@H]1c1nccn1Cc1ccc(Cl)cc1 [Compound 29],> 7.30
8,Cc1cc(C(F)(F)F)cc(C)c1NC(=O)N1CCC[C@@H]1c1nccn1Cc1ccc(Cl)cc1 [Compound 30],> 7.30
9,Cc1oc(-c2ccccc2)cc1NC(=O)N1CCC[C@@H]1c1nccn1Cc1ccc(Cl)cc1 [Compound 31],> 7.30
10,O=C(NC1CCCOc2ccccc21)N1CCC[C@@H]1c1nccn1Cc1ccc(Cl)cc1 (stereo partly drawn) [Compound 32],> 7.30
11,Cc1cc(Cl)cc(C)c1NC(=O)N1CCC[C@@H]1c1nccn1Cc1ccc(Cl)cc1 [Compound 33],> 7.30
12,Cc1noc(-c2ccccc2)c1NC(=O)N1CCC[C@@H]1c1nccn1Cc1ccc(Cl)cc1 [Compound 34],> 7.30
13,Cc1onc(-c2ccccc2)c1NC(=O)N1CCC[C@@H]1c1nccn1Cc1ccc(Cl)cc1 [Compound 35],> 7.30
14,Cc1nc(-c2ccccc2)sc1NC(=O)N1CCC[C@@H]1c1nccn1Cc1ccc(Cl)cc1 [Compound 36],> 7.30
15,CSc1ccc(NC(=O)N2CCC[C@@H]2c2nccn2Cc2ccc(Cl)cc2)cc1 [Compound 37],> 7.30
16,O=C(Nc1ccc(C(F)(F)F)cc1)N1CCC[C@@H]1c1nccn1Cc1ccc(Cl)cc1 [Compound 38],6.30 to 7.30
17,O=C(Nc1ccc(OC(F)(F)F)cc1)N1CCC[C@@H]1c1nccn1Cc1ccc(Cl)cc1 [Compound 39],6.30 to 7.30
18,O=C(Nc1ccc(SC(F)(F)F)cc1)N1CCC[C@@H]1c1nccn1Cc1ccc(Cl)cc1 [Compound 40],6.30 to 7.30
19,O=C(Nc1ccc(Cl)c(C(F)(F)F)c1)N1CCC[C@@H]1c1nccn1Cc1ccc(Cl)cc1 [Compound 41],6.30 to 7.30
20,N#C/N=C(\Nc1ccc(C(F)(F)F)cc1)N1CCC[C@@H]1c1nccn1Cc1ccc(Cl)cc1 [Compound 42],6.30 to 7.30
21,O=C(NCc1ccc(Cl)cc1Cl)N1CCC[C@@H]1c1nccn1Cc1ccc(Cl)cc1 [Compound 43],6.30 to 7.30
22,CC[C@H](NC(=O)N1CCC[C@@H]1c1nccn1Cc1ccc(Cl)cc1)c1ccc(C(F)(F)F)cc1 [Compound 44],6.30 to 7.30

row,SMILES,pIC50
1,Cc1cc(NC(=O)N2CCC[C@@H]2c2nccn2Cc2ccc(Cl)cc2)c(C(F)(F)F)o1 [Compound 45],5.30 to 6.30
2,Cc1ccc(Cn2ccnc2[C@H]2CCCN2C(=O)Nc2ccc(C(F)(F)F)cc2)cc1 [Compound 46],5.30 to 6.30
3,O=C(Nc1ccc(C(F)(F)F)cc1)N1CCC[C@@H]1c1nccn1Cc1ccccc1 [Compound 47],5.30 to 6.30
4,O=C(N[C@H]1CCCc2ccccc21)N1CCC[C@@H]1c1nnnn1Cc1ccc(Cl)cc1 [Compound 48],> 7.30
5,CC1(C)CC(NC(=O)N2CCC[C@@H]2c2nnnn2Cc2ccc(Cl)cc2)c2ccccc2O1 (stereo partly drawn) [Compound 49],6.30 to 7.30
6,N#C/N=C(\N[C@H]1CCCc2ccccc21)N1CCC[C@@H]1c1nnnn1Cc1ccc(Cl)cc1 [Compound 50],5.30 to 6.30
7,Cc1noc(-c2ccccc2)c1NC(=O)N1CCC[C@@H]1c1nnnn1Cc1ccc(Cl)cc1 [Compound 51],> 7.30
8,Cc1onc(-c2ccccc2)c1NC(=O)N1CCC[C@@H]1c1nnnn1Cc1ccc(Cl)cc1 [Compound 52],> 7.30
9,O=C(Nc1ccc(C(F)(F)F)cc1)N1CCC[C@@H]1c1nnnn1Cc1ccc(Cl)cc1 [Compound 53],> 7.30
10,O=C(Nc1ccc(Cl)cc1F)N1CCC[C@@H]1c1nnnn1Cc1ccc(Cl)cc1 [Compound 54],6.30 to 7.30
11,O=C(N[C@H]1CCOc2cc(C(F)(F)F)ccc21)N1CCC[C@@H]1c1nnnn1Cc1ccc(Cl)cc1 [Compound 55],> 7.30
12,O=C(N[C@H]1CCc2ccccc2C1)N1CCC[C@@H]1c1ncnn1Cc1ccc(Cl)cc1 [Compound 56],> 7.30
13,O=C(N[C@H]1CCOc2cc(C(F)(F)F)ccc21)N1CCC[C@@H]1c1ncnn1Cc1ccc(Cl)cc1 [Compound 57],> 7.30
14,Cc1cc(C(F)(F)F)cc(C)c1NC(=O)N1CCC[C@@H]1c1ncnn1Cc1ccc(Cl)cc1 [Compound 58],> 7.30
15,Cc1noc(-c2ccccc2)c1NC(=O)N1CCC[C@@H]1c1ncnn1Cc1ccc(Cl)cc1 [Compound 60],> 7.30
16,Cc1cc(C(F)(F)F)cc(Br)c1NC(=O)N1CCC[C@@H]1c1ncnn1Cc1ccc(Cl)cc1 [Compound 61],> 7.30
17,Cc1onc(-c2ccccc2)c1NC(=O)N1CCC[C@@H]1c1ncnn1Cc1ccc(Cl)cc1 [Compound 62],> 7.30
18,Cc1cc(C(F)(F)F)ccc1NC(=O)N1CCC[C@@H]1c1ncnn1Cc1ccc(Cl)cc1 [Compound 63],> 7.30
19,O=C(Nc1ccc(C(F)(F)F)cc1)N1CCC[C@@H]1c1ncnn1Cc1ccc(Cl)cc1 [Compound 64],> 7.30
20,O=C(N[C@H]1CCOc2cc(Cl)ccc21)N1CCC[C@@H]1c1ncnn1Cc1ccc(Cl)cc1 [Compound 65],6.30 to 7.30
21,Cc1cc(Cl)cc(C)c1NC(=O)N1CCC[C@@H]1c1ncnn1Cc1ccc(Cl)cc1 [Compound 66],6.30 to 7.30
22,CSc1ccc(NC(=O)N2CCC[C@@H]2c2ncnn2Cc2ccc(Cl)cc2)cc1 [Compound 67],6.30 to 7.30
